Read-outs that look alike come from different tables or passages of the source.
What was measured:
[1] = for temperature of 10 hour half-life: in trichlorobenzene; for t1/2: trichlorobenzene; for 10 hr. t1/2 temp.: Table II, solvent not given
[2] = tested on: rat; details: in rat; decomposition residue of AIBN; cited from earlier work
[3] = Preliminary toxicological studies compared with AIBN
Excerpt: In general, the new compositions of the present invention eliminate these problems. The tertiary-(alkyl, cycloalkyl, bicycloalkyl or aralkyl) group on the one side of the azo function lowers the melting point of these compounds so that most of them are liquids or low melting solids which can be handled in the melted state. In addition, this tertiary group increases the solubility of these azos so that most of them are completely miscible with the common organic solvents including petroleum hydrocarbons. Thus, no dusting, metering, incorporating, mixing, and dispersing problems are encountered in using these new compositions. […] The less toxic nature of the new compositions coupled with their liquid and high solubility properties allows them to be used in many applications where AIBN cannot be used.

[4] = Thermal decomposition half-life in odorless mineral spirits; type: physicochemical
[5] = Solubility in petroleum / hydrocarbon / common organic solvents; details: even at temperatures as low as -20°C
[6] = Thermal decomposition half-life in water; type: physicochemical
[7] = Stability in unsaturated polyester-styrene resin at room temperature; type: physicochemical; details: unsaturated polyester-styrene resin of Example III
Protocol: An unsaturated polyester resin was made by reacting maleic anhydride (1.0 mole), phthalic anhydride (1.0 mole), and propylene glycol (2.2 moles) until an acid number of 45-50 was obtained. To this was added hydroquinone at a 0.013% concentration. Seven parts of this unsaturated polyester was diluted with 3 parts of monomeric styrene to obtain a homogeneous blend having a viscosity of 13.08 poise and a specific gravity of 1.14.

| SMILES | temperature of 10 hour half-life [1] | other results |
| --- | --- | --- |
| CC(C)C(=O)OCC(C)(C#N)N=NC(C)(C)C (stereo not drawn) [2-t-Butylazo-2-cyano-1-isobutyroyloxypropane] | approximately 79 °C | – |
| CC1(N=NC2(C#N)CCCCC2)CCCCC1 [LXII, 1-t-(Methylcyclohexyl)azo-1-cyanocyclohexane] | approximately 100 °C | – |
| CC(C)CC(C)(C#N)N=NC(C)(C)c1ccccc1 (stereo not drawn) [Example LVII, 2-t-Cumylazo-2-cyano-4-methylpentane] | approximately 33 °C | – |
| CC(C)(C#N)N=NC(C)(C)c1ccccc1 [Example XII, 2-t-Cumylazo-2-cyanopropane] | 50 °C | – |
| CC(C)(C)N=NC(C)(C)C(N)=NO [2-t-Butylazo-2-methylpropionamidoxime] | approximately 90 °C | – |
| CC(C)CC(C#N)(CC(C)C)N=NC(C)(C)C [Example VII, 4-t-Butylazo-4-cyano-2,6-dimethylheptane] | 61 °C | – |
| CC(C)(C)N=NC1(C#N)CCCCC1 [Example V, 1-t-Butylazo-1-cyanocyclohexane] | 96 °C | t1/2 ([1]; 96.3 °C): 10.0 h; t1/2 ([1]; 100 °C): 6.7 h; t1/2 ([1]; 110 °C): 2.3 h; t1/2 ([1]; 120 °C): 0.75 h |
| CCC(C)(C)N=NC1(C#N)CCCCC1 [XV, 1-t-Amylazo-1-cyanocyclohexane] | approximately 94 °C | – |
| CC(C)(C#N)C(C)(C)C#N [2,2,3,3-tetramethylsuccinonitrile] | – | LD50 [2]: 30 mg/kg |
| CC(C)(C)N=NC(C)(C#N)COC(=O)C(C)(C)C (stereo not drawn) [2-t-Butylazo-2-cyano-1-pivaloyloxypropane] | approximately 75 °C | – |
| COC(C)(C)CC(C)(C#N)N=NC(C)(C)C (stereo not drawn) [Example XXXIV, 2-t-Butylazo-2-cyano-4-methoxy-4-methylpentane] | approximately 55 °C | – |
| CC(C)(C)N=NC1(C(N)=O)CCCCC1 [LXIII, 1-t-Butylazo-1-carbamylcyclohexane] | 111 °C | – |
| CC(C)(C)N=NC(C)(C)C#N [Example I, 2-t-Butylazo-2-cyanopropane] | 79 °C | toxicity compared with AIBN [3]: significantly less toxic than AIBN; temperature of 10 hour half-life [4]: 86 °C; t1/2 ([1]; 70 °C): 40.5 h; t1/2 ([1]; 78.8 °C): 10.0 h; t1/2 ([1]; 90 °C): 2.0 h; t1/2 ([1]; 100 °C): 0.54 h; t1/2 ([1]; 110 °C): 0.20 h |
| CC(C)(C)N=NC1(C#N)CCCCCCC1 [Example 1-t-Butylazo-1-cyanocyclooctane, 1-t-Butylazo-1-cyanocyclooctane] | approximately 55 °C | – |
| CC(C)CCC(C)(C#N)N=NC(C)(C)C (stereo not drawn) [2-t-Butylazo-2-cyano-5-methylhexane] | approximately 78 °C | – |
| CC(C)(N=NC1(C#N)CCCCC1)c1ccccc1 [Example LVI, 1-t-Cumylazo-1-cyanocyclohexane] | approximately 62.5 °C | – |
| CC(C)(C)N=NC(C)(C#N)c1ccccc1 (stereo not drawn) [XLII, 1-t-butylazo-1-cyano-1-phenylethane] | – | 10 hr. t1/2 temp. [1]: ~ 30 °C |
| CCC(C)(C#N)N=NC(C)(C)C (stereo not drawn) [Example VI, 2-t-Butylazo-2-cyanobutane] | around 80 °C | temperature of 10 hour half-life [4]: around 82 °C; solubility in hydrocarbon solvents [5]: very soluble |
| CC(C)(C)N=NC(C)(C#N)C1CC1 (stereo not drawn) [1-t-Butylazo-1-cyano-1-cyclopropylethane] | 62 °C | – |
| CC1CC(C)(C)CC(C#N)(N=NC(C)(C)C)C1 (stereo not drawn) [Example VIII, 1-t-Butylazo-1-cyano-3,3,5-trimethylcyclohexane] | 78 °C | – |
| CC(C)(C)CC(C)(C#N)N=NC(C)(C)C (stereo not drawn) [XLI, 2-t-butylazo-2-cyano-4,4-dimethylpentane] | – | 10 hr. t1/2 temp. [1]: 52 °C |
| CC(C)(C)N=NC(C)(C#N)CCC(=O)O (stereo not drawn) [Example X, 4-t-Butylazo-4-cyanovaleric Acid] | 76 °C | temperature of 10 hour half-life [6]: 73 °C |
| CC(C)CC(C)(C#N)N=NC(C)(C)C (stereo not drawn) [Example XXXII, 2-t-Butylazo-2-cyano-4-methylpentane] | approximately 70 °C | period stable in the resin [7]: exceeding 1 month |
| CC(C)(C)N=NC(C)(C)C(N)=O [Example LXIV, 2-t-Butylazo-2-carbamylpropane] | 110 °C | – |
| CCCCCCC(C)(C#N)N=NC(C)(C)C (stereo not drawn) [LI, 2-t-butylazo-2-cyanooctane] | – | 10 hr. t1/2 temp. [1]: 79 °C |
| CCC(C)(C)N=NC(C)(C)C#N [XIV, 2-t-Amylazo-2-cyanopropane] | 79 °C | – |
| CC(C)(C)N=NC1(C#N)CCCCCC1 [Example 1-t-Butylazo-1-cyanocycloheptane, 1-t-Butylazo-1-cyanocycloheptane] | approximately 68 °C | – |
| CC(C)(C)N=NC(C)(C#N)COC(=O)c1ccccc1 (stereo not drawn) [2-t-Butylazo-2-cyano-1-benzoyloxypropane] | approximately 77 °C | – |
| CC(C)(C)N=NC(C)(C#N)C(C)(C)C (stereo not drawn) [IX, 2-t-Butylazo-2-cyano-3,3-dimethylbutane] | 80 °C | – |
| CC(C)(C)N=NC1(C#N)C(C)(C)C(=O)C1(C)C [XLIII, 3-t-butylazo-3-cyano-2,2,4,4-tetramethylcyclobutanone] | – | 10 hr. t1/2 temp. [1]: 115 °C |
